Experimental data taken from the NIST ThermoML archive (doi:10.1016/j.jct.2011.10.023).

Conditions: Liquid, Vibrating tube method

CCCCCCO [hexan-1-ol]
mass density [kg/m3]
Conditions	278.15 K	288.15 K	298.15 K	308.15 K	318.15 K	328.15 K	338.15 K	348.15 K	358.15 K
100 kPa	828.9	822.1	814.9	807.8	800.5	793	785.4	777.6	769.4
1000 kPa	829.5	822.7	815.6	808.4	801.2	793.7	786.2	778.4	770
5000 kPa	832	825.3	818.4	811.4	804.3	797	789.6	782	774.2
10000 kPa	835	828.5	821.7	814.8	807.9	800.8	793.6	786.2	778.6
15000 kPa	838	831.6	824.9	818.2	811.4	804.4	797.4	790.2	782.8
20000 kPa	840.8	834.6	828	821.4	814.7	807.9	801	794.1	786.9
25000 kPa	843.6	837.4	830.9	824.5	817.9	811.2	804.5	797.6	790.7
30000 kPa	846.3	840.2	833.8	827.5	821	814.4	807.9	801.2	794.3
35000 kPa	848.9	842.9	836.6	830.3	824	817.6	811.1	804.6	797.9
40000 kPa	851.4	845.5	839.4	833.2	826.9	820.6	814.2	807.8	801.3
45000 kPa	853.9	848	842	835.9	829.7	823.5	817.3	811	804.6
50000 kPa	856.3	850.5	844.6	838.5	832.4	826.4	820.2	814	807.7
55000 kPa	858.7	853	847.1	841.1	835.1	829.1	823.1	817	810.8
60000 kPa	860.9	855.4	849.6	843.5	837.7	831.6	825.7	819.7	813.5

CCCCCCCCCO [nonan-1-ol]
mass density [kg/m3]
Conditions	278.15 K	288.15 K	298.15 K	308.15 K	318.15 K	328.15 K	338.15 K	348.15 K	358.15 K
100 kPa	836.9	829.9	823.2	816.5	809.8	802.8	795.7	788.3	780.9
1000 kPa	837.4	830.5	823.7	817.1	810.4	803.4	796.4	788.9	781.6
5000 kPa	839.7	832.7	826.3	819.8	813.2	806.3	799.4	792.3	785
10000 kPa	842.5	835.9	829.4	822.9	816.5	809.8	803	796.1	789
15000 kPa	845.1	838.7	832.3	826	819.7	813.1	806.5	799.7	792.9
20000 kPa	847.8	841.4	835.1	828.9	822.7	816.3	809.8	803.2	796.5
25000 kPa	850.3	844	837.9	831.8	825.6	819.3	813	806.6	799.9
30000 kPa	852.8	846.6	840.5	834.5	828.5	822.3	816.1	809.8	803.3
35000 kPa	855.3	849.1	843.1	837.2	831.3	825.2	819.1	812.9	806.6
40000 kPa	857.6	851.6	845.7	839.8	834	828	822	815.9	809.7
45000 kPa	859.9	854	848.1	842.4	836.6	830.7	824.8	818.8	812.8
50000 kPa	862.2	856.3	850.5	844.8	839.2	833.4	827.6	821.6	815.7
55000 kPa	864.4	858.6	852.9	847.3	841.7	836	830.2	824.4	818.6
60000 kPa	866.4	860.7	855	849.3	844	838.3	832.7	826.7	821.2
